Reference: ChEMBL document CHEMBL2010711, “Synthesis and comparative evaluation of 4-oxa- and 4-aza-podophyllotoxins as antiproliferative microtubule destabilizing agents” (Bioorg Med Chem Lett, 2012)
pIC50: −log10 of the molar value. Active and inactive are the calls of the source.

Tests used:
[1] = system: HOP-92; assay: Cytotoxicity against human HOP92 cells after 48 hrs by trypan blue dye exclusion assay; type: functional; conditions: HOP-92, 48 h
[2] = system: SW-620; assay: Cytotoxicity against human SW620 cells after 48 hrs by trypan blue dye exclusion assay; type: functional; conditions: SW-620, 48 h
[3] = system: SNB-75; assay: Cytotoxicity against human SNB75 cells after 48 hrs by trypan blue dye exclusion assay; type: functional; conditions: SNB-75, 48 h
[4] = system: SK-MEL-5; assay: Cytotoxicity against human SK-MEL-5 cells after 48 hrs by trypan blue dye exclusion assay; type: functional; conditions: SK-MEL-5, 48 h
[5] = system: MDA-MB-435; assay: Cytotoxicity against human MDA-MB-435 cells after 48 hrs by trypan blue dye exclusion assay; type: functional; conditions: MDA-MB-435, 48 h
[6] = system: HCT-116; assay: Cytotoxicity against human HCT116 cells after 48 hrs by trypan blue dye exclusion assay; type: functional; conditions: HCT-116, 48 h
[7] = system: NCI/ADR-RES; assay: Cytotoxicity against human NCI/ADR-RES cells after 48 hrs by trypan blue dye exclusion assay; type: functional
[8] = system: SF-268; assay: Cytotoxicity against human SF268 cells after 48 hrs by trypan blue dye exclusion assay; type: functional; conditions: SF-268, 48 h
[9] = system: M14; assay: Cytotoxicity against human M14 cells after 48 hrs by trypan blue dye exclusion assay; type: functional; conditions: M14, 48 h
[10] = system: OVCAR-8; assay: Cytotoxicity against human OVCAR8 cells after 48 hrs by trypan blue dye exclusion assay; type: functional; conditions: OVCAR-8, 48 h
[11] = system: NCI-H522; assay: Cytotoxicity against human NCI-H522 cells after 48 hrs by trypan blue dye exclusion assay; type: functional; conditions: NCI-H522, 48 h
[12] = system: NCI-H460; assay: Cytotoxicity against human NCI-H460 cells after 48 hrs by trypan blue dye exclusion assay; type: functional; conditions: NCI-H460, 48 h
[13] = system: Malme-3M; assay: Cytotoxicity against human MALME-3M cells after 48 hrs by trypan blue dye exclusion assay; type: functional
[14] = system: HT-29; assay: Cytotoxicity against human HT-29 cells after 48 hrs by trypan blue dye exclusion assay; type: functional; conditions: HT-29, 48 h
[15] = system: HOP-62; assay: Cytotoxicity against human HOP62 cells after 48 hrs by trypan blue dye exclusion assay; type: functional; conditions: HOP-62, 48 h
[16] = system: NCI-H23; assay: Cytotoxicity against human NCI-H23 cells after 48 hrs by trypan blue dye exclusion assay; type: functional; conditions: NCI-H23, 48 h
[17] = system: UACC-257; assay: Cytotoxicity against human UACC257 cells after 48 hrs by trypan blue dye exclusion assay; type: functional; conditions: UACC-257, 48 h
[18] = system: OVCAR-3; assay: Cytotoxicity against human OVCAR3 cells after 48 hrs by trypan blue dye exclusion assay; type: functional; conditions: OVCAR-3, 48 h
[19] = system: K562; assay: Cytotoxicity against human K562 cells after 48 hrs by trypan blue dye exclusion assay; type: functional; conditions: K562, 48 h
[20] = system: HCC 2998; assay: Cytotoxicity against human HCC2998 cells after 48 hrs by trypan blue dye exclusion assay; type: functional; conditions: HCC 2998, 48 h
[21] = system: SF-539; assay: Cytotoxicity against human SF539 cells after 48 hrs by trypan blue dye exclusion assay; type: functional; conditions: SF-539, 48 h
[22] = system: CCRF-CEM; assay: Cytotoxicity against human CCRF-CEM cells after 48 hrs by trypan blue dye exclusion assay; type: functional
[23] = system: MDA-MB-468; assay: Cytotoxicity against human MDA-MB-468 cells after 48 hrs by trypan blue dye exclusion assay; type: functional; conditions: MDA-MB-468, 48 h
[24] = system: DU-145; assay: Cytotoxicity against human DU145 cells after 48 hrs by trypan blue dye exclusion assay; type: functional; conditions: DU-145, 48 h
[25] = system: A549; assay: Cytotoxicity against human A549 cells after 48 hrs by trypan blue dye exclusion assay; type: functional; conditions: A549, 48 h
[26] = system: Paracentrotus lividus; assay: Microtubule destabilizing activity in Paracentrotus lividus embryo assessed as embryo spinning at 2 fold less effective threshold concentration after 15 mins to 20 hrs; type: functional, organism-based
[27] = system: EKVX; assay: Cytotoxicity against human EKVX cells after 48 hrs by trypan blue dye exclusion assay; type: functional
[28] = system: Paracentrotus lividus; assay: Microtubule destabilizing activity in Paracentrotus lividus embryo assessed as concentration required to cause 100% embryo spinning after 15 mins to 20 hrs; type: functional
[29] = system: UACC-62; assay: Cytotoxicity against human UACC62 cells after 48 hrs by trypan blue dye exclusion assay; type: functional; conditions: UACC-62, 48 h
[30] = system: Paracentrotus lividus; assay: Antimitotic activity against Paracentrotus lividus embryo assessed as concentration required to cause 100% cleavage arrest after 2.5 to 6 hrs; type: functional
[31] = system: HCT-15; assay: Cytotoxicity against human HCT15 cells after 48 hrs by trypan blue dye exclusion assay; type: functional; conditions: HCT-15, 48 h
[32] = system: MDA-MB-231; assay: Cytotoxicity against human MDA-MB-231 cells after 48 hrs by trypan blue dye exclusion assay; type: functional; conditions: MDA-MB-231, 48 h
[33] = system: MOLT-4; assay: Cytotoxicity against human MOLT4 cells after 48 hrs by trypan blue dye exclusion assay; type: functional; conditions: MOLT-4, 48 h
[34] = system: SK-MEL-28; assay: Cytotoxicity against human SK-MEL-28 cells after 48 hrs by trypan blue dye exclusion assay; type: functional; conditions: SK-MEL-28, 48 h
[35] = system: Jurkat; assay: Cytotoxicity against human Jurkat cells; type: functional, cell-based
[36] = system: Paracentrotus lividus; assay: Antimitotic activity against Paracentrotus lividus embryo assessed as cleavage arrest at 2 fold less effective threshold concentration after 2.5 to 6 hrs; type: functional, organism-based
[37] = Cytotoxicity against human Hs 578T cells after 48 hrs by trypan blue dye exclusion assay; type: functional
[38] = system: SF-295; assay: Cytotoxicity against human SF295 cells after 48 hrs by trypan blue dye exclusion assay; type: functional; conditions: SF-295, 48 h
[39] = system: OVCAR-4; assay: Cytotoxicity against human OVCAR4 cells after 48 hrs by trypan blue dye exclusion assay; type: functional; conditions: OVCAR-4, 48 h
[40] = system: Paracentrotus lividus; assay: Antimitotic activity against Paracentrotus lividus embryo assessed as cleavage alteration at 2 fold less effective threshold concentration after 2.5 to 6 hrs; type: functional, organism-based
[41] = system: SN12C; assay: Cytotoxicity against human SN12C cells after 48 hrs by trypan blue dye exclusion assay; type: functional
[42] = system: U-251; assay: Cytotoxicity against human U251 cells after 48 hrs by trypan blue dye exclusion assay; type: functional; conditions: U-251, 48 h
[43] = system: OVCAR-5; assay: Cytotoxicity against human OVCAR5 cells after 48 hrs by trypan blue dye exclusion assay; type: functional; conditions: OVCAR-5, 48 h
[44] = system: PC-3; assay: Cytotoxicity against human PC3 cells after 48 hrs by trypan blue dye exclusion assay; type: functional; conditions: PC-3, 48 h
[45] = system: MCF7; assay: Cytotoxicity against human MCF7 cells after 48 hrs by trypan blue dye exclusion assay; type: functional; conditions: MCF7, 48 h
[46] = system: SR; assay: Cytotoxicity against human SR cells after 48 hrs by trypan blue dye exclusion assay; type: functional
[47] = system: TK-10; assay: Cytotoxicity against human TK10 cells after 48 hrs by trypan blue dye exclusion assay; type: functional; conditions: TK-10, 48 h
[48] = system: UO-31; assay: Cytotoxicity against human UO31 cells after 48 hrs by trypan blue dye exclusion assay; type: functional; conditions: UO-31, 48 h
[49] = system: LOX IMVI; assay: Cytotoxicity against human LOXIMVI cells after 48 hrs by trypan blue dye exclusion assay; type: functional
[50] = system: ACHN; assay: Cytotoxicity against human ACHN cells after 48 hrs by trypan blue dye exclusion assay; type: functional
[51] = system: Paracentrotus lividus; assay: Antimitotic activity against Paracentrotus lividus embryo assessed as concentration required to cause 100% cleavage alteration after 2.5 to 6 hrs; type: functional

## COc1ccc2c(c1)OC1=C(C(=O)OC1)C2c1cc(OC)c2c(c1)OCO2 (configuration not stated)
[1]
  GI50: 73000 nM
[2]
  GI50: 39.2 nM
[3]
  GI50: 13.9 nM
[4]
  GI50: 36.9 nM
[5]
  GI50: < 10 nM
[6]
  GI50: 37.4 nM
[7]
  GI50: 18.6 nM
[8]
  GI50: 78 nM
[9]
  GI50: 23.3 nM
[10]
  GI50: 55.6 nM
[11]
  GI50: < 10 nM
[12]
  GI50: 36.6 nM
[13]
  GI50: > 100000 nM
[14]
  GI50: 33.1 nM
[15]
  GI50: 34.9 nM
[16]
  GI50: 23.5 nM
[17]
  GI50: 21300 nM
[18]
  GI50: 20.9 nM
  TGI: 44.6 nM
[19]
  GI50: 33 nM
[20]
  GI50: 42.1 nM
[21]
  GI50: 34.4 nM
[22]
  GI50: 37 nM
[23]
  GI50: 26.3 nM
[24]
  GI50: 35.2 nM
[25]
  GI50: 44.4 nM
[26]
  Activity: inactive
[27]
  GI50: 77.8 nM
[28]
  EC: 100 nM
[29]
  GI50: 35 nM
[30]
  EC: 10 nM
[31]
  GI50: 47.5 nM
[32]
  GI50: 61.4 nM
[33]
  GI50: 65 nM
[34]
  GI50: 34.2 nM
[35]
  pIC50: 7.26
[36]
  Activity: inactive
[37]
  GI50: 30.8 nM
[38]
  GI50: 20.2 nM
[39]
  GI50: 59.8 nM
[40]
  Activity: inactive
[41]
  GI50: 62.5 nM
[42]
  GI50: 42.7 nM
[43]
  GI50: 153 nM
[44]
  GI50: 40.9 nM
[45]
  GI50: 29.1 nM
[46]
  GI50: 37.8 nM
[47]
  GI50: 268 nM
[48]
  GI50: 57.6 nM
[49]
  GI50: 69.1 nM
[50]
  GI50: 267 nM
[51]
  EC: 2 nM
